In ChEMBL document CHEMBL1134838, “Structure-activity relationships at monoamine transporters and muscarinic receptors for N-substituted-3alpha-(3'-chloro-, 4'-chloro-, and 4',4''-dichloro-substituted-diphenyl)methoxytropanes” (J Med Chem, 2001) one finds Ki data, which are given here for 17 molecules.

SMILES strings stand for the structures.

Assay [1] deals with Sodium-dependent dopamine transporter (Rattus norvegicus, UniProt P23977). The experiment in a line: biochemical. It counts as tissue-based, Brain.
Description: Binding affinity for dopamine transporter was determined in vitro in rat brain using [3H]WIN-35428 s radioligand
For assay [2], the target named is T1, Muscarinic acetylcholine receptor M1 (Rattus norvegicus, UniProt P08482).
T1 sequence (P08482 whole entry): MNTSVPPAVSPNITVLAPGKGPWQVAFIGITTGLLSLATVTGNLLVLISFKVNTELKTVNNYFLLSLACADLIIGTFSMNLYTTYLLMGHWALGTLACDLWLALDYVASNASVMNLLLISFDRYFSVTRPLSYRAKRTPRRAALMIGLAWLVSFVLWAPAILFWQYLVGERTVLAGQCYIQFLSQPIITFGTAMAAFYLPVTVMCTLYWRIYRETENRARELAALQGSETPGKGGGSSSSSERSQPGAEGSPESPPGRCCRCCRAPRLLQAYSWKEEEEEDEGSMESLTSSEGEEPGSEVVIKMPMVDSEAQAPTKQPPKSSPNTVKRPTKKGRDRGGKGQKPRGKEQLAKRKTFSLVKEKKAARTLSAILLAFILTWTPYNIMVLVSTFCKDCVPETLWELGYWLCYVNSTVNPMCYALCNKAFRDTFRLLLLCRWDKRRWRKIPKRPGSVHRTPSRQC
The experiment in a line: Binding affinity for muscarinic m1 receptor was determined in vitro in rat brain using [3H]pirenzepine as radioligand. It counts as tissue-based.

For assay [3], the target named is Sodium-dependent serotonin transporter (Rattus norvegicus, UniProt P31652). Nature of the assay: Binding affinity for serotonin transporter was determined in vitro in rat brain using [3H]citalopram as radioligand. In kind it is tissue-based.
Assay [4] concerns the target Norepinephrine transporter (Rattus norvegicus, UniProt Q9WTR4). The experiment in a line: Binding affinity for norepinephrine transporter in rat brain using [3H]-nisoxatine as radioligand. It counts as tissue-based.

Sodium-dependent dopamine transporter, sequence (P23977 whole entry): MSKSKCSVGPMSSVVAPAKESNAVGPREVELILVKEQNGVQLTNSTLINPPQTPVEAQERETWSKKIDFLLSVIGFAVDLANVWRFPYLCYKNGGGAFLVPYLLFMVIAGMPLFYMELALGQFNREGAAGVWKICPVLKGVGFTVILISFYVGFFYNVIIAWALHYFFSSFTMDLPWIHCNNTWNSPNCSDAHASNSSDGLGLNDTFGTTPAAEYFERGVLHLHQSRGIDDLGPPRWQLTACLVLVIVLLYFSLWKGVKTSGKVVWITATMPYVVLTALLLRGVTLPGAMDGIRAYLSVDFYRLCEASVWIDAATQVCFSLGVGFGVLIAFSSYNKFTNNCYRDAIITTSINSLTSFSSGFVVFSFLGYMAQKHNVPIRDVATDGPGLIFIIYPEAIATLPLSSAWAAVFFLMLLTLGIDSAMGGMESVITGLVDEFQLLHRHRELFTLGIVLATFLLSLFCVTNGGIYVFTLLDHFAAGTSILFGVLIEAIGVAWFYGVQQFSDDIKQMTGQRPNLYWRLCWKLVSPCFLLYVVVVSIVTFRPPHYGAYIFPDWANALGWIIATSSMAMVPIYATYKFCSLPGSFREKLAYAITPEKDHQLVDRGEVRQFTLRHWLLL
Norepinephrine transporter, sequence (Q9WTR4 whole entry): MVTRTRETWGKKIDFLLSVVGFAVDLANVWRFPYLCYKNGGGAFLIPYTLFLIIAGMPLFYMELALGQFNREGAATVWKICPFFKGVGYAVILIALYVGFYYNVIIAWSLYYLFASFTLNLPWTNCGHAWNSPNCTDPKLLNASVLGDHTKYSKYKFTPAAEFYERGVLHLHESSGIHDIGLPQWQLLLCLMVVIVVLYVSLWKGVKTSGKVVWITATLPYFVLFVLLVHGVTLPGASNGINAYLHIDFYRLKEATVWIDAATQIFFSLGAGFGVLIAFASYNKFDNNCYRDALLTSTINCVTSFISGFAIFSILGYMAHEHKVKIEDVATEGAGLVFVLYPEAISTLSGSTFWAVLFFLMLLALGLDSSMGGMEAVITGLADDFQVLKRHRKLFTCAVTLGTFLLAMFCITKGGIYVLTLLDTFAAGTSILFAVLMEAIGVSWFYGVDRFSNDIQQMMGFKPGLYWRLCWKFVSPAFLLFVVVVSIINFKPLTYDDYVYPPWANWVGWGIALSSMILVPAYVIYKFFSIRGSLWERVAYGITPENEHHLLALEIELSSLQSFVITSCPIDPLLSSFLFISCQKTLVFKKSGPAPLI
Sodium-dependent serotonin transporter, sequence (P31652 whole entry): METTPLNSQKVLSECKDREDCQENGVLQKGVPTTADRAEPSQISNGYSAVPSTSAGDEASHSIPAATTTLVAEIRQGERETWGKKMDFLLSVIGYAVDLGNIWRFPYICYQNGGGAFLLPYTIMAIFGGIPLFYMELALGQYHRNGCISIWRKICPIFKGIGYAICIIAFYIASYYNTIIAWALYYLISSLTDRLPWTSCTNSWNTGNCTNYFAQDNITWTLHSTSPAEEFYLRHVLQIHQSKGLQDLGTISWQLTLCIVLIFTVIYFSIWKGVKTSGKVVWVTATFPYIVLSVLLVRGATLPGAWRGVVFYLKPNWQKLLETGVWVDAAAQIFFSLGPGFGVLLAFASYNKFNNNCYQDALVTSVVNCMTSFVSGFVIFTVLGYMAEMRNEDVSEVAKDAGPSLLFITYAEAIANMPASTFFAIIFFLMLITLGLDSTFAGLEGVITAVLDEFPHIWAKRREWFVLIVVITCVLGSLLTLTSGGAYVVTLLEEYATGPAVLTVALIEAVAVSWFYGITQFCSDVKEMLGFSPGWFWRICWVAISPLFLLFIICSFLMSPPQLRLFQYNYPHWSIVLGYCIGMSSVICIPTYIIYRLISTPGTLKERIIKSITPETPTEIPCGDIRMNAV

As a reminder, the Ki is the equilibrium dissociation constant of an inhibitor or competing ligand from its target. A higher Ki goes with lower affinity. Consider `CCCc1cccc(N2[C@@H]3CC[C@H]2C[C@H](OC(c2ccccc2)c2cccc(Cl)c2)C3)c1` (some centres undefined), for which the Ki in assay [1] was determined as 101 nM; in assay [2], 337 nM; in assay [3], 429 nM; in assay [4] it was 1810 nM.

`Clc1ccc(C(OC2CC3CCC(C2)N3Cc2ccccc2)c2ccc(Cl)cc2)cc1` (centres undefined): the Ki in assay [1] is 399 nM; in assay [2], 8630 nM; in assay [3] it was 3610 nM; in assay [4] it was 7660 nM.

Take `C=CCN1C2CCC1CC(OC(c1ccccc1)c1ccc(Cl)cc1)C2` (centres undefined): the inhibition constant (Ki) is 84.2 nM in assay [1], 127 nM in assay [2], 2330 nM in assay [3] and 4720 nM in assay [4].

On to `C=CCN1C2CCC1CC(OC(c1ccc(Cl)cc1)c1ccc(Cl)cc1)C2` (centres undefined), for which the Ki in assay [1] was determined as 54.6 nM; in assay [2], 127 nM; in assay [3], 568 nM; in assay [4], 4140 nM.

In the case of `Clc1cccc(C(OC2CC3CCC(C2)N3)c2ccccc2)c1` (centres undefined), the Ki in assay [1] came out at 26.2 nM; in assay [2], 91.7 nM; in assay [3] it was 2100 nM; in assay [4] it was 508 nM.

In the case of `Clc1ccc(C(OC2CC3CCC(C2)N3)c2ccccc2)cc1` (centres undefined), the Ki in assay [1] was found to be 36.8 nM; in assay [2], 95.5 nM; in assay [3], 1320 nM; in assay [4], 1010 nM.

As for `CN1C2CCC1CC(OC(c1ccccc1)c1ccc(Cl)cc1)C2` (centres undefined), the values for the Ki in assay [2], in assay [3] and in assay [4] were 7.9 nM, 5120 nM and 1470 nM, respectively.

For the molecule `CCCCc1cccc(N2C3CCC2CC(OC(c2ccccc2)c2cccc(Cl)c2)C3)c1` (centres undefined), the Ki in assay [1] amounted to 153 nM; in assay [2], 564 nM; in assay [3], 591 nM; in assay [4], 1470 nM.

With `Clc1cccc(C(OC2CC3CCC(C2)N3Cc2ccccc2)c2ccccc2)c1` (centres undefined), the Ki in assay [1] turned out to be 191 nM; in assay [2], 674 nM; in assay [3] it was 1680 nM; in assay [4] it was 6460 nM.

On to `C=CCN1C2CCC1CC(OC(c1ccccc1)c1cccc(Cl)c1)C2` (centres undefined), for which the Ki in assay [1] is 33.6 nM; in assay [2] it was 69.7 nM; in assay [3] it was 1200 nM; in assay [4] it was 1230 nM.

For `CN1[C@@H]2CC[C@H]1C[C@@H](OC(c1ccccc1)c1cccc(Cl)c1)C2` (some centres undefined), the figures for the Ki in assay [3] and in assay [4] were 258 nM and 451 nM, respectively.

In the case of `Clc1ccc(C(OC2CC3CCC(C2)N3)c2ccc(Cl)cc2)cc1` (centres undefined), the Ki in assay [2] turned out to be 649 nM; in assay [3], 727 nM; in assay [4] it was 6040 nM.

For the molecule `CCCCc1cccc(N2[C@@H]3CC[C@H]2C[C@H](OC(c2ccc(Cl)cc2)c2ccc(Cl)cc2)C3)c1`, the Ki in assay [1] came to 85 nM; in assay [2], 3730 nM; in assay [3], 659 nM; in assay [4] it was 4950 nM.

`Clc1ccc(C(OC2CC3CCC(C2)N3Cc2ccccc2)c2ccccc2)cc1` (centres undefined): the Ki in assay [1] is 365 nM; in assay [2] it was 2560 nM; in assay [3], 3530 nM; in assay [4] it was 13000 nM.

In the case of `CCCCc1cccc(N2[C@@H]3CC[C@H]2C[C@H](OC(c2ccccc2)c2ccc(Cl)cc2)C3)c1` (some centres undefined), the inhibitory constant (Ki) in assay [1] is 53.3 nM; in assay [2] it was 1430 nM; in assay [3], 737 nM; in assay [4], 2320 nM.

Consider `CCCc1cccc(N2[C@H]3CC[C@]2(C)C[C@@H](OC(c2ccccc2)c2ccc(Cl)cc2)C3)c1` (some centres undefined), for which the Ki was 148 nM in assay [1], 397 nM in assay [2], 302 nM in assay [3] and 10300 nM in assay [4].

In the case of `CCCc1cccc(N2[C@@H]3CC[C@H]2C[C@H](OC(c2ccc(Cl)cc2)c2ccc(Cl)cc2)C3)c1`, the Ki in assay [1] was found to be 158 nM; in assay [2], 3050 nM; in assay [3], 585 nM; in assay [4], 19800 nM.
